The source made the active and inactive calls. The rule behind the calls is not given here.
Legend:
[1] = test system: Ehrlich; assay: Antitumor activity against mouse EAC cells implanted in ip dosed Swiss albino mouse assessed as reduction in cell density administered every alternate day for 3 days; type: functional
[2] = Cytotoxicity against mouse DLA cells assessed as reduction in cell viability after 48 hrs by MTT assay; type: functional, cell-based
[3] = test system: Ehrlich; assay: In vivo antiangiogenic activity in mouse EAC implanted in Swiss albino mouse assessed as regression of tumor-induced angiogenesis in peritoneum at 25 mg/kg, ip administered every alternate day for 3 days; type: functional; details: 72 h
[4] = test system: MDA-MB-468; assay: Cytotoxicity against human MDA-MB-468 cells assessed as reduction in cell viability after 48 hrs by trypan blue exclusion assay; type: functional, cell-based; details: MDA-MB-468, 48 h
[5] = test system: A549; assay: Cytotoxicity against human A549 cells assessed as reduction in cell viability after 48 hrs by trypan blue exclusion assay; type: functional, cell-based; details: A549, 48 h
[6] = test system: A549; assay: Cytotoxicity against human A549 cells assessed as reduction in cell viability after 48 hrs by MTT assay; type: functional, cell-based; details: A549, 48 h
[7] = test system: Ehrlich; assay: In vivo antiangiogenic activity in mouse EAC implanted in Swiss albino mouse assessed as regression of tumor-induced angiogenesis in peritoneum at 5 mg/kg, ip administered every alternate day for 3 days; type: functional; details: 72 h
[8] = test system: Ehrlich; assay: In vivo induction of apoptosis in mouse EAC cells implanted in Swiss albino mouse assessed as EAC cell membrane blebbing at 25 to 50 mg/kg, ip administered every alternate day for 3 days by Geimsa staining-based microscopic analysis; type: functional, organism-based
[9] = test system: Ehrlich; assay: Antitumor activity against mouse EAC cells implanted in Swiss albino mouse assessed as decrease in tumor volume at 25 mg/kg, ip administered every alternate day for 3 days; type: functional; details: 72 h, read-out: TGI
[10] = test system: Ehrlich; assay: Antitumor activity against mouse EAC solid tumor implanted in ip dosed Swiss albino mouse assessed as reduction in tumor volume administered every alternate day for 3 days; type: functional, organism-based
[11] = test system: Ehrlich; assay: Antitumor activity against mouse EAC cells implanted in Swiss albino mouse assessed as decrease in tumor volume at 50 mg/kg, ip administered every alternate day for 3 days; type: functional; details: 72 h, read-out: TGI
[12] = test system: Ehrlich; assay: Antitumor activity against mouse EAC cells implanted in ip dosed Swiss albino mouse assessed as decrease in tumor volume administered every alternate day for 3 days; type: functional, organism-based
[13] = test system: Mus musculus; assay: In vivo inhibition of VEGF secretion in Swiss albino mouse EAC cells implanted with mouse EAC at 25 to 50 mg/kg, ip administered every alternate day for 3 days by ELISA; type: functional, organism-based
[14] = test system: Ehrlich; assay: Cytotoxicity against mouse EAC cells assessed as reduction in cell viability after 48 hrs by MTT assay; type: functional, cell-based
[15] = test system: MCF7; assay: Cytotoxicity against human MCF7 cells assessed as reduction in cell viability after 48 hrs by trypan blue exclusion assay; type: functional, cell-based; details: MCF7, 48 h
[16] = test system: Mus musculus; assay: Up-regulation of MDM2 protein expression in Swiss albino mouse EAC cells implanted with mouse EAC at 25 to 50 mg/kg, ip administered every alternate day for 3 days by immunoblot analysis; type: functional, organism-based
[17] = test system: Ehrlich; assay: In vivo antiangiogenic activity in mouse EAC implanted in Swiss albino mouse administered ip assessed as regression of tumor-induced angiogenesis in peritoneum administered every alternate day for 3 days; type: functional, organism-based
[18] = test system: Ehrlich; assay: Antitumor activity against mouse EAC cells implanted in Swiss albino mouse assessed as mouse survival at 25 to 50 mg/kg, ip administered every alternate day for 3 days; type: functional
[19] = test system: Ehrlich; assay: Antitumor activity against mouse EAC solid tumor implanted in Swiss albino mouse assessed as reduction in tumor growth at 25 mg/kg, ip administered every alternate day for 3 days by animal morphology analysis; type: functional, organism-based
[20] = test system: Ehrlich; assay: In vivo induction of apoptosis in mouse EAC cells implanted in Swiss albino mouse assessed as EAC cell shrinkage at 25 to 50 mg/kg, ip administered every alternate day for 3 days by Geimsa staining-based microscopic analysis; type: functional, organism-based
[21] = Cytotoxicity against mouse DLA cells assessed as reduction in cell viability after 48 hrs by trypan blue exclusion assay; type: functional, cell-based
[22] = test system: Mus musculus; assay: Toxicity in Swiss albino mouse implanted with mouse EAC cells assessed as induction of adverse effect on spleen at 25 to 50 mg/kg, ip administered every alternate day for 3 days; type: organism-based; details: in vivo, 72 h
[23] = test system: Mus musculus; assay: In vivo inhibition of HIF-1alpha expression in Swiss albino mouse EAC cells implanted with mouse EAC at 25 to 50 mg/kg, ip administered every alternate day for 3 days by immunoblot analysis; type: functional, organism-based
[24] = test system: Ehrlich; assay: Antitumor activity against mouse EAC cells implanted in ip dosed Swiss albino mouse assessed as reduction in ascite volume administered every alternate day for 3 days; type: functional
[25] = test system: Ehrlich; assay: Antitumor activity against mouse EAC solid tumor implanted in Swiss albino mouse assessed as reduction in tumor mass at 25 mg/kg, ip administered every alternate day for 3 days; type: functional
[26] = test system: Mus musculus; assay: In vivo induction of apoptosis in mouse EAC cells implanted in Swiss albino mouse assessed as DNA fragmentation at 25 to 50 mg/kg, ip administered every alternate day for 3 days by DNA fragmentation assay; type: functional, organism-based
[27] = test system: MCF7; assay: Cytotoxicity against human MCF7 cells assessed as reduction in cell viability after 48 hrs by MTT assay; type: functional, cell-based; details: MCF7, 48 h
[28] = test system: MDA-MB-468; assay: Cytotoxicity against human MDA-MB-468 cells assessed as reduction in cell viability after 48 hrs by MTT assay; type: functional, cell-based; details: MDA-MB-468, 48 h
[29] = test system: Ehrlich; assay: In vivo induction of apoptosis in mouse EAC cells implanted in Swiss albino mouse assessed as induction of EAC cell irregular shape at 25 to 50 mg/kg, ip administered every alternate day for 3 days by Geimsa staining-based microscopic analysis; type: functional, organism-based
[30] = test system: Mus musculus; assay: Up-regulation of p53 protein expression in Swiss albino mouse EAC cells implanted with mouse EAC at 25 to 50 mg/kg, ip administered every alternate day for 3 days by immunoblot analysis; type: functional, organism-based
[31] = test system: Chorioallantoic membrane; assay: In vivo antiangiogenic activity in chicken chorioallantoic membrane assessed as inhibition of recombinant VEGF165-induced vessel formation after 3 days; type: functional, Gallus gallus
[32] = test system: Mus musculus; assay: Toxicity in Swiss albino mouse implanted with mouse EAC cells assessed as induction of adverse effect on liver at 25 to 50 mg/kg, ip administered every alternate day for 3 days; type: organism-based; details: in vivo, 72 h
[33] = test system: Ehrlich; assay: Cytotoxicity against mouse EAC cells assessed as reduction in cell viability after 48 hrs by trypan blue exclusion assay; type: functional, cell-based
[34] = test system: Cornea; assay: Antiangiogenic activity in cornea of alkali injured rat eye assessed as induction of restraining of vessel sprouting applied to centre of cornea for 40 secs post alkali injury; type: functional

Cc1ccc(-c2csc(NC(=O)COc3ccc(F)cc3F)n2)cc1
fold change (FC) [1]: 6 | IC50 [2]: 13.4 µM | inhibition in vivo at 25 mg/kg [3]: 30% | IC50 [4]: 10.2 µM | IC50 [5]: 13.2 µM | IC50 [6]: 13.9 µM | inhibition in vivo at 5 mg/kg [7]: 10% | Activity [8]: Active | inhibition in vivo at 25 mg/kg [9]: 74.3% | Activity [10]: Dose-dependent effect | inhibition in vivo at 50 mg/kg [11]: 80.2% | Activity [12]: Dose-dependent effect | inhibition [13]: Active | IC50 [14]: 14.9 µM | IC50 [15]: 14 µM | Activity [16]: Active | Activity [17]: Dose-dependent effect | Survival [18]: >=23 - 25 day | TGI [19]: Active | Activity [20]: Active | IC50 [21]: 13.9 µM | Activity [22]: Non-Toxic | inhibition [23]: Active | Activity [24]: Dose-dependent effect | fold change (FC) [24]: 3 - 4 | Activity [25]: <=10 g | Activity [26]: Active | IC50 [27]: 14.5 µM | IC50 [28]: 10.5 µM | Activity [29]: Active | Activity [30]: Active | inhibition (INH) [31]: 80% | Activity [32]: Non-Toxic | IC50 [33]: 14 µM | Activity [34]: 60%

— ChEMBL document CHEMBL4251560, “The Novel 4-Phenyl-2-Phenoxyacetamide Thiazoles modulates the tumor hypoxia leading to the crackdown of neoangiogenesis and evoking the cell death” (Eur J Med Chem, 2018)
